“And” between values parts separate entries of the source, which are not always exact repeats. Equal values may be shown once.
Columns and labels:
[1] = 101 kPa, Liquid; for speed of sound: Pulse-echo method
[2] = xn = mol fraction of the nth substance listed; conditions: 101 kPa, Liquid

COC(C)(C)C [2-methoxy-2-methylpropane]
[1]
Conditions	mass density [kg/m3]	speed of sound
288.15 K	747.273	1086.6 m/s and 1086.9 m/s
293.15 K	742.072	1063.4 m/s
298.15 K	736.826	1040.3 m/s
303.15 K	731.532	1017.4 m/s
308.15 K	726.185	994.68 m/s

COC(C)(C)C [2-methoxy-2-methylpropane] + CCCN
[2], x1 = 1
Conditions	mass density [kg/m3]	speed of sound [m/s]
288.15 K	747.273	1086.6
293.15 K	742.072	1063.4
298.15 K	736.826	1040.3
303.15 K	731.532	1017.4
308.15 K	726.185	994.68

COC(C)(C)C [2-methoxy-2-methylpropane] + CCCNCCC
[2], Pulse-echo method, x1 = 1
Conditions	speed of sound [m/s]
288.15 K	1086.9
293.15 K	1063.4
298.15 K	1040.3
303.15 K	1017.4
308.15 K	994.68

[2], x1 = 1
Conditions	mass density [kg/m3]
288.15 K	747.273
293.15 K	742.072
298.15 K	736.826
303.15 K	731.532
308.15 K	726.185

CCCNCCC [dipropylamine]
[1]
Conditions	mass density [kg/m3]	speed of sound [m/s]
288.15 K	745.064	1235.1
293.15 K	740.501	1213.4
298.15 K	735.924	1191.9
303.15 K	731.333	1170.4
308.15 K	726.732	1149

CCCN [propan-1-amine]
[1]
Conditions	mass density [kg/m3]	speed of sound [m/s]
288.15 K	725.08	1266.1
293.15 K	719.859	1242
298.15 K	714.586	1218
303.15 K	709.269	1194
308.15 K	703.911	1169.9

CCCN [propan-1-amine] + COC(C)(C)C
[2]
Conditions	mass density, 288.15 K [kg/m3]	mass density, 293.15 K [kg/m3]	mass density, 298.15 K [kg/m3]	mass density, 303.15 K [kg/m3]	mass density, 308.15 K [kg/m3]	speed of sound, 288.15 K [m/s]	speed of sound, 293.15 K [m/s]	speed of sound, 298.15 K [m/s]	speed of sound, 303.15 K [m/s]	speed of sound, 308.15 K [m/s]
x2 = 0	725.08	719.859	714.586	709.269	703.911	1266.1	1242	1218	1194	1169.9
x2 = 0.0709	727.856	722.621	717.583	712.014	706.643	1251.4	1227.2	1203.1	1179.1	1155.3
x2 = 0.0971	729.03	723.784	718.729	713.152	707.762	1244	1220	1196	1172.2	1148.2
x2 = 0.2112	733	727.745	722.617	717.065	711.678	1214.4	1190.5	1166.5	1142.9	1119.1
x2 = 0.2915	734.914	729.567	724.408	718.869	713.452	1204.2	1180.3	1156.2	1132.6	1109
x2 = 0.3956	737.188	731.938	726.763	721.277	715.895	1174.4	1150.7	1127	1103.4	1079.8
x2 = 0.5551	740.109	734.863	729.642	724.214	718.801	1146	1122.5	1098.9	1075.4	1052.2
x2 = 0.7171	742.564	737.327	732.071	726.691	721.338	1120.6	1097.1	1073.7	1050.5	1027.3
x2 = 0.7747	743.456	738.22	732.941	727.578	722.269	1111.6	1088	1064.5	1041	1017.8
x2 = 0.8604	744.503	739.27	733.994	728.673	723.302	1101.2	1077.8	1054.2	1030.9	1007.5
x2 = 0.9268	745.6	740.382	735.117	729.806	724.452	1094.2	1070.7	1047.5	1024.2	1001.1

Reference: the NIST ThermoML archive (doi:10.1021/je900597n)
